The values that follow come from patent US12583824B2 (Genzyme Corporation, priority 2019, dated 2026).

T1 sequence (P13569 with tags, fused parts or gaps DEL508-508): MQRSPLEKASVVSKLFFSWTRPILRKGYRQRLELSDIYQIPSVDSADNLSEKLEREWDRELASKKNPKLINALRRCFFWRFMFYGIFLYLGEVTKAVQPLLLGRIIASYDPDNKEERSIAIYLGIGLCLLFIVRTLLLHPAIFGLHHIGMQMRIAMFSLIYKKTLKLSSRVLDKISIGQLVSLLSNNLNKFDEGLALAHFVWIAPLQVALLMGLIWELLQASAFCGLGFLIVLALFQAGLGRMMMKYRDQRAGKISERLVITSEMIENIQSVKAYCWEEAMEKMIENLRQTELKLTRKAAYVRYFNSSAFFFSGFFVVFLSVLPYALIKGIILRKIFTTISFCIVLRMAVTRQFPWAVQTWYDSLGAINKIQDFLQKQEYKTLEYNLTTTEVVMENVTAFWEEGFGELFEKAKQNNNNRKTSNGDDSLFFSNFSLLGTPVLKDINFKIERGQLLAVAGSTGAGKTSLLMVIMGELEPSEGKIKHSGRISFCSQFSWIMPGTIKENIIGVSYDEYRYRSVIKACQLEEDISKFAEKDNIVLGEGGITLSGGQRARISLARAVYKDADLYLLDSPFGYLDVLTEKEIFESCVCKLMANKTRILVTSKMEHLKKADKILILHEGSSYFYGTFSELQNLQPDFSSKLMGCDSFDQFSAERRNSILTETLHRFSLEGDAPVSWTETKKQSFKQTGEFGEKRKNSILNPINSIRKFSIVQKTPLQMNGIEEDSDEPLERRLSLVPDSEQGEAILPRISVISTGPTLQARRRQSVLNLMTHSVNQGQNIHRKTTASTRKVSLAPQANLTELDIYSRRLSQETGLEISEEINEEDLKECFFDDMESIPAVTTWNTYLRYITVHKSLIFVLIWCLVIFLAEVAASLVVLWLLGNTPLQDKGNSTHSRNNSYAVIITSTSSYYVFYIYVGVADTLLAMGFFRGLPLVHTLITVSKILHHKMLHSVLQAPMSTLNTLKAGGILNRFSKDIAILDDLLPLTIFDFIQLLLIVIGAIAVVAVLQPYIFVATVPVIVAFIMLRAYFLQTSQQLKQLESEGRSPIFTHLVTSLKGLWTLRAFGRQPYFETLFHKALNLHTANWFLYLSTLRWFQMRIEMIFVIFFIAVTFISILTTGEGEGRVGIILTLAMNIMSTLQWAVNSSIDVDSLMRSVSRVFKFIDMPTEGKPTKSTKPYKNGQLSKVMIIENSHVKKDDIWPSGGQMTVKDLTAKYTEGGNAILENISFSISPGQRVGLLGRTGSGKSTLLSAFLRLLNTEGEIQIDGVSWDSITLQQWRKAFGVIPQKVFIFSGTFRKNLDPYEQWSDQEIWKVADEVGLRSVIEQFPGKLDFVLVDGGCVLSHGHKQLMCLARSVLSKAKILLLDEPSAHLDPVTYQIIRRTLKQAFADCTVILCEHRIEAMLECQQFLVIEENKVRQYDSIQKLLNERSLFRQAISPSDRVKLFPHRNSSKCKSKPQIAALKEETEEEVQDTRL

This test concerns the target T1, CFTR in primary human bronchial epithelial cells from a ΔF508 homozygous CF donor (CF-HBE cells) (Homo sapiens, UniProt P13569, DEL508-508).
T1 construct: Primary human bronchial epithelial cells from a ΔF508 homozygous CF donor; host or cells: primary human bronchial epithelial cells (CF-HBE), ΔF508 homozygous donor
Nature of the test: TECC24 recording analysis of CFTR-mediated transepithelial chloride transport (AUC fold over DMSO). In kind it is cell-based. As to conditions: 3 μM test agent, CF-HBE cells cultured 48 hours at 36.5° C.; ratio of test agent AUC of forskolin-stimulated IEQ divided by vehicle (DMSO) AUC. Here is the method:
Example 31: TECC24 AUC Fold Over DMSO @ 3 μM
The effects of a test agent on CFTR-mediated transepithelial chloride transport was measured using TECC24 recording analysis. Test agents were solubilized in DMSO. Solubilized test agents were mixed with incubation medium containing DMEM/F12, Ultroser G (2%; Crescent Chemical, catalog #67042), Hyclone Fetal Clone II (2%; GE Healthcare, catalog #SH30066.02), bovine brain extract (0.25%; Lonza, catalog #CC-4098), insulin (2.5 μg/mL), IL-13 (10 ng/mL), hydrocortisone (20 nM), transferrin (2.5 μg/mL), triiodothyronine (500 nM), ethanolamine (250 nM), epinephrine (1.5 μM), phosphoethanolamine (250 nM), and retinoic acid (10 nM). Primary human bronchial epithelial cells from a ΔF508 homozygous CF donor (CF-HBE cells; from University of North Carolina Cystic Fibrosis Tissue Procurement Center), grown on Transwell HTS 24-well cell culture inserts (Costar, catalog #3378), were exposed to test agents or controls dissolved in incubation medium. The CF-HBE cells were cultured at 36.5° C. for 48 hours before TECC24 recordings were performed in the presence or absence of test agent, a positive control or vehicle (DMSO).
Following incubation, the transwell cell culture inserts containing the test agent or control-treated CF-HBE cells were loaded onto a TECC24 apparatus (TECC v7 or MTECC v2; EP Design) to record the transepithelial voltage (VT) and resistance (TEER) using 4 AgCl electrodes per well configured in current-clamp mode. The apical and basolateral bath solutions both contained (in mM) 140 NaCl, 5 KCl, 2 CaCl2), 1 MgCl2, 10 Hepes, and 10 glucose (adjusted to pH 7.4 with NaOH). To inhibit basal Na+ absorption, the ENaC inhibitor benzamil (10 μM) was added to the bath. Then, the adenylate cyclase activator, forskolin (10 μM), was added to the bath to activate CFTR. The forskolin-stimulated Cl-transport was halted by addition of bumetanide (20 μM), an inhibitor of the basolateral chloride co-transporter NKCC1, to the bath to confirm that the detected signal was chloride dependent. VT and TEER recordings were digitally acquired at routine intervals using TECC or MTECC software (EP Design). VT and TEER were transformed into equivalent transepithelial Cl-current (IEQ), and the Area Under the Curve (AUC) of the IEQ time course between forskolin and bumetanide addition is generated using Excel (Microsoft). Efficacy is expressed as the ratio of the test agent AUC divided by vehicle AUC. EC50s based on AUC are generated using the non-linear regression log(agonist) vs. response function in Prism software (GraphPad) with Hill Slope fixed=1.
If a test agent increased the AUC of the forskolin-stimulated IEQ relative to vehicle in CF-HBE cells, and this increase was inhibited by bumetanide, then the test agent was considered a CFTR corrector.
Consider `Cc1cccc(C)c1-c1nc(NS(=O)(=O)c2ccccc2)cnc1-c1cccc([C@@H]2CC[C@H](OC(F)(F)F)C2)c1` (single isomer, unassigned) [Example 6a], for which the “TECC24 AUC vs. DMSO (@3 μM)” value was “B (“B” refers to AUC between 2-5)”. In the case of `Cc1cccc(C)c1-c1nc(NS(=O)(=O)c2ccccc2)cnc1-c1cccc([C@@H]2CC[C@@H](OC(F)(F)F)C2)c1` (single isomer, unassigned) [Example 6b], the “TECC24 AUC vs. DMSO (@3 μM)” value was “A (“A “refers to AUC > 5)”. In the case of `Cc1cccc(C)c1-c1nc(NS(=O)(=O)c2cn(C)nc2C)cnc1-c1cccc([C@@H]2CC[C@H](OC(F)(F)F)C2)c1` (single isomer, unassigned) [Example 7a], the “TECC24 AUC vs. DMSO (@3 μM)” value is “C (“C” refers to AUC < 2)”. `Cc1cccc(C)c1-c1nc(NS(=O)(=O)c2cn(C)nc2C)cnc1-c1cccc([C@@H]2CC[C@@H](OC(F)(F)F)C2)c1` (single isomer, unassigned) [Example 7b]: the “TECC24 AUC vs. DMSO (@3 μM)” value is “B (“B” refers to AUC between 2-5)”. Consider `Cc1nn(C)cc1S(=O)(=O)Nc1cnc(-c2cccc([C@@H]3CC[C@H](OC(F)(F)F)C3)c2)c(-c2ccccc2C(C)C)n1` (single isomer, unassigned) [Example 8a], for which the “TECC24 AUC vs. DMSO (@3 μM)” value is given as “C (“C” refers to AUC < 2)”. As for `Cc1nn(C)cc1S(=O)(=O)Nc1cnc(-c2cccc([C@@H]3CC[C@@H](OC(F)(F)F)C3)c2)c(-c2ccccc2C(C)C)n1` (single isomer, unassigned) [Example 8b], the “TECC24 AUC vs. DMSO (@3 μM)” value is given as “B (“B” refers to AUC between 2-5)”.

With `CC(C)c1ccccc1-c1nc(NS(=O)(=O)c2ccccc2)cnc1-c1cccc([C@@H]2CC[C@H](OC(F)(F)F)C2)c1` (single isomer, unassigned) [Example 9a], the “TECC24 AUC vs. DMSO (@3 μM)” value is reported as “C (“C” refers to AUC < 2)”. The result for `CC(C)c1ccccc1-c1nc(NS(=O)(=O)c2ccccc2)cnc1-c1cccc([C@@H]2CC[C@@H](OC(F)(F)F)C2)c1` (single isomer, unassigned) [Example 9b] reads “C (“C” refers to AUC < 2)”; that for `CC(C)n1nccc1-c1nc(NS(=O)(=O)c2ccccc2)cnc1-c1cccc([C@@H]2CCC(OC(F)(F)F)C2)c1` (single isomer, unassigned) [Example 10a], “C (“C” refers to AUC < 2)”; that for `CC(C)n1nccc1-c1nc(NS(=O)(=O)c2ccccc2)cnc1-c1cccc([C@@H]2CC[C@@H](OC(F)(F)F)C2)c1` (single isomer, unassigned) [Example 10b], “C (“C” refers to AUC < 2)”.

For the molecule `O=S(=O)(Nc1ncc(-c2cccc([C@H]3CC[C@H](OC(F)(F)F)C3)c2)c(-c2ccccc2C(F)(F)F)n1)c1ccccc1` (single isomer, unassigned) [Example 27a], the “TECC24 AUC vs. DMSO (@3 μM)” value is “B (“B” refers to AUC between 2-5)”. For `O=S(=O)(Nc1ncc(-c2cccc([C@H]3CC[C@@H](OC(F)(F)F)C3)c2)c(-c2ccccc2C(F)(F)F)n1)c1ccccc1` (single isomer, unassigned) [Example 27b], the “TECC24 AUC vs. DMSO (@3 μM)” value is given as “A (“A “refers to AUC > 5)”. For `O=S(=O)(Nc1ncc(-c2cccc([C@@H]3CC[C@H](OC(F)(F)F)C3)c2)c(-c2ccccc2C(F)(F)F)n1)c1ccccc1` (single isomer, unassigned) [Example 28a], the “TECC24 AUC vs. DMSO (@3 μM)” value is reported as “A (“A “refers to AUC > 5)”. With `O=S(=O)(Nc1ncc(-c2cccc([C@@H]3CC[C@@H](OC(F)(F)F)C3)c2)c(-c2ccccc2C(F)(F)F)n1)c1ccccc1` (single isomer, unassigned) [Example 28b], the “TECC24 AUC vs. DMSO (@3 μM)” value is “A (“A “refers to AUC > 5)”. On to `Nc1cccc(S(=O)(=O)Nc2ncc(-c3cccc([C@H]4CC[C@@H](OC(F)(F)F)C4)c3)c(-c3ccccc3C(F)(F)F)n2)c1` (single isomer, unassigned) [Example 29a], for which the “TECC24 AUC vs. DMSO (@3 μM)” value was “B (“B” refers to AUC between 2-5)”. `Nc1cccc(S(=O)(=O)Nc2ncc(-c3cccc([C@H]4CC[C@H](OC(F)(F)F)C4)c3)c(-c3ccccc3C(F)(F)F)n2)c1` (single isomer, unassigned) [Example 29b]: the “TECC24 AUC vs. DMSO (@3 μM)” value was “B (“B” refers to AUC between 2-5)”.

As for `Nc1cccc(S(=O)(=O)Nc2ncc(-c3cccc([C@@H]4CC[C@H](OC(F)(F)F)C4)c3)c(-c3ccccc3C(F)(F)F)n2)c1` (single isomer, unassigned) [Example 30a], the “TECC24 AUC vs. DMSO (@3 μM)” value is on record as “B (“B” refers to AUC between 2-5)”. Consider `Nc1cccc(S(=O)(=O)Nc2ncc(-c3cccc([C@@H]4CC[C@@H](OC(F)(F)F)C4)c3)c(-c3ccccc3C(F)(F)F)n2)c1` (single isomer, unassigned) [Example 30b], for which the “TECC24 AUC vs. DMSO (@3 μM)” value was “A (“A “refers to AUC > 5)”.

With `CC(C)c1ccccc1-c1nc(NS(=O)(=O)c2ccccc2)cnc1-c1cccc(OCC(F)(F)C(C)(C)C)c1` [Example 1, N-(5-(3-(2,2-difluoro-3,3-dimethylbutoxy)phenyl)-6-(2-isopropylphenyl)pyrazin-2-yl)benzenesulfonamide], the “TECC24 AUC vs. DMSO (@3 μM)” value is reported as “A (“A “refers to AUC > 5)”. Consider `Cc1cccc(C)c1-c1nc(NS(=O)(=O)c2ccccc2)cnc1-c1cccc(OCC(F)(F)C(C)(C)C)c1` [Example 2, N-(5-(3-(2,2-difluoro-3,3-dimethylbutoxy)phenyl)-6-(2,6-dimethylphenyl)pyrazin-2-yl)benzenesulfonamide], for which the “TECC24 AUC vs. DMSO (@3 μM)” value is reported as “A (“A “refers to AUC > 5)”.

With `Cc1cccc(C)c1-c1nc(NS(=O)(=O)c2ccccc2)cnc1-c1cccc(OCCC(C)(C)C)c1` [Example 3, N-(5-(3-(3,3-dimethylbutoxy)phenyl)-6-(2,6-dimethylphenyl)pyrazin-2-yl)benzenesulfonamide], the “TECC24 AUC vs. DMSO (@3 μM)” value is “A (“A “refers to AUC > 5)”. With `Cc1cccc(C)c1-c1nc(NS(=O)(=O)c2ccccc2)cnc1-c1ccc(F)c(OCC(C)(C)C(F)(F)F)c1` [Example 4, N-(6-(2,6-dimethylphenyl)-5-(4-fluoro-3-(3,3,3-trifluoro-2,2-dimethylpropoxy)phenyl)pyrazin-2-yl)benzenesulfonamide], the “TECC24 AUC vs. DMSO (@3 μM)” value is on record as “A (“A “refers to AUC > 5)”. For the molecule `CC(C)c1ccccc1-c1nc(NS(=O)(=O)c2ccccc2)cnc1-n1ccc(OCC(F)(F)C(C)(C)C)n1` [Example 5, N-(5-(3-(2,2-difluoro-3,3-dimethylbutoxy)-1H-pyrazol-1-yl)-6-(2-isopropylphenyl)pyrazin-2-yl)benzenesulfonamide], the “TECC24 AUC vs. DMSO (@3 μM)” value is “A (“A “refers to AUC > 5)”.

For the molecule `Cc1nn(C)cc1S(=O)(=O)Nc1cnc(-c2cccc([C@@H]3CC[C@@H](OC(F)(F)F)C3)c2)c(-c2ccnn2C(C)C)n1` [Example 11, N-(6-(1-isopropyl-1H-pyrazol-5-yl)-5-(3-((1R,3R)-3-(trifluoromethoxy)cyclopentyl)phenyl)pyrazin-2-yl)-1,3-dimethyl-1H-pyrazole-4-sulfonamide], the “TECC24 AUC vs. DMSO (@3 μM)” value was “C (“C” refers to AUC < 2)”.

Consider `CC(C)(C)COc1cc(-c2ccc(NS(=O)(=O)c3cccc(Cl)n3)nc2-c2ccc(C(F)(F)F)cc2)ccc1Cl` [Example 12, 6-chloro-N-(5-(4-chloro-3-(neopentyloxy)phenyl)-6-(4-(trifluoromethyl)phenyl)pyridin-2-yl)pyridine-2-sulfonamide], for which the “TECC24 AUC vs. DMSO (@3 μM)” value is “B (“B” refers to AUC between 2-5)”.

Take `CC(C)(C)COc1cc(-c2ccc(NS(=O)(=O)c3cccc(N)n3)nc2-c2ccc(C(F)(F)F)cc2)ccc1Cl` [Example 13, 6-amino-N-(5-(4-chloro-3-(neopentyloxy)phenyl)-6-(4-(trifluoromethyl)phenyl)pyridin-2-yl)pyridine-2-sulfonamide]: the “TECC24 AUC vs. DMSO (@3 μM)” value was “C (“C” refers to AUC < 2)”. Turning to `CC(C)(C)COc1cc(-c2ccc(NS(=O)(=O)c3ccccc3)nc2-c2ccc(C(F)(F)F)cc2)ccc1Cl` [Example 14, N-(5-(4-chloro-3-(neopentyloxy)phenyl)-6-(4-(trifluoromethyl)phenyl)pyridin-2-yl)benzenesulfonamide], the “TECC24 AUC vs. DMSO (@3 μM)” value is on record as “C (“C” refers to AUC < 2)”.
